Reference: US4670461A, “Formaldehyde derivatives of mitindomide” (priority 1984, dated 1987)
Converted amounts (≈) assume the structure as drawn.

How the values were obtained:
Water solubility = assay type: physicochemical; conditions: for solubility: read-out: H2O Sol. % (g per 100 ml H2O)
L1210 leukemia [1] = assay: S.C. implanted L1210 leukemia in mice (CD2F1); assay type: in vivo
Excerpt: ^a Experimental formulation of mitindomide was used (NaOH + manitol).

L1210 leukemia [2] = assay: IP implanted L1210 leukemia in mice (CD2F1); assay type: in vivo
P388 = assay: IP P388, Days 1-9 (NCI murine test system); assay type: in vivo; conditions: IP P388, Days 1-9, dose 400
Protocol: Anti-tumor or anti-neoplastic activity of the novel derivatives of the present invention is determined by using the murine test system for screening anti-cancer compounds as standardized by the National Cancer Institute, Bethesda, Md., U.S.A., and described in Cancer Chemotherapy Reports, 3 (2) 1-103 (1972) which publication is incorporated herein by reference.
It is noted that although the intraperitoneal mode of administration of the novel derivatives is preferred, other modes of parenteral administration, e.g. subcutaneous, intravenous, etc., are, of course, possible and included within the purview of this invention. Similarly, although water has been used as a vehicle for the administration of the compounds of the present invention, other pharmaceutically acceptable vehicles, e.g. saline, buffers, and other aqueous media may also be used for the administration of these compounds together with adjuvants, agents or additives commonly employed in the preparation of pharmaceutical compositions. Examples of such agents, additives and adjuvants that may be employed are listed in Instruction 14, Screening Data Summary Interpretation and Outline of Clinical Screen. Drug Evaluation Branch, NCI. and are incorporated herein by reference.

[3] = 21.6 mg/kg ip days 1-9, Expt. 1
[4] = 21.6 mg/kg ip days 1-9, Expt. 2
[5] = 36.0 mg/kg ip days 1-9, Expt. 1
[6] = 36.0 mg/kg ip days 1-9, Expt. 2
[7] = 60.0 mg/kg ip days 1-9, Expt. 1
[8] = 60.0 mg/kg ip days 1-9, Expt. 2
[9] = 100.0 mg/kg ip days 1-9, Expt. 1
[10] = 100.0 mg/kg ip days 1-9, Expt. 2
[11] = 166.7 mg/kg ip days 1-9, Expt. 2
[12] = 21.6 mg/kg IP days 1-9, Expt. 1
[13] = 21.6 mg/kg IP days 1-9, Expt. 2
[14] = 21.6 mg/kg IP days 1-9, Expt. 3
[15] = 166.7 mg/kg IP days 1-9, Expt. 1
[16] = 166.7 mg/kg IP days 1-9, Expt. 3

O=C1C2C3C=CC(C2C(=O)N1CO)C1C2C(=O)N(CO)C(=O)C2C31 (centres unmarked) [Example 2, 4,8-Ethenopyrrolo[3',4':3,4]cyclobut[1,2-f]isoindole-1,3,5,7(2H,6H)-tetrone,3a,3b,4,4a,7a,8,8a,8b-octahydro-2-,6-bis(hydroxymethyl)-]
solubility (Water solubility; water): 8000 µg/mL (≈ 24.1 mM)

CN1CCN(CN2C(=O)C3C4C=CC(C3C2=O)C2C3C(=O)N(CN5CCN(C)CC5)C(=O)C3C42)CC1 (centres unmarked) [Example 3, 4,8-Ethenopyrrolo[3'4':3,4]cyclobut[1,2-f]isoindole-1,3,5,7(2H,6H)-tetrone,3a,3b,4,4a,7a,8,8a,8b-octahydro-2,6-bis(N-methylpiperazinomethyl)]
H2O Sol. % (g per 100 ml H2O) (Water solubility; water): 1.5 % (g per 100 ml H2O)
ILS (L1210 leukemia [1]; [3]): 6%
MST (L1210 leukemia [1]; [3]): 8.7 days
Wt. Change (L1210 leukemia [1]; [3]): -0.3 g
ILS (L1210 leukemia [1]; [4]): 10%
MST (L1210 leukemia [1]; [4]): 11.8 days
Wt. Change (L1210 leukemia [1]; [4]): 0.2 g
ILS (L1210 leukemia [1]; [5]): 13%
MST (L1210 leukemia [1]; [5]): 9.3 days
Wt. Change (L1210 leukemia [1]; [5]): -1.0 g
ILS (L1210 leukemia [1]; [6]): 5%
MST (L1210 leukemia [1]; [6]): 11.3 days
Wt. Change (L1210 leukemia [1]; [6]): -0.4 g
ILS (L1210 leukemia [1]; [7]): 70%
MST (L1210 leukemia [1]; [7]): 14.0 days
Wt. Change (L1210 leukemia [1]; [7]): -4.2 g
ILS (L1210 leukemia [1]; [8]): 14%
MST (L1210 leukemia [1]; [8]): 12.3 days
Wt. Change (L1210 leukemia [1]; [8]): -0.7 g
ILS (L1210 leukemia [1]; [9]): 143%
MST (L1210 leukemia [1]; [9]): 20.0 days
Wt. Change (L1210 leukemia [1]; [9]): -5.3 g
ILS (L1210 leukemia [1]; [10]): 72%
MST (L1210 leukemia [1]; [10]): 18.5 days
Wt. Change (L1210 leukemia [1]; [10]): -3.1 g
ILS (L1210 leukemia [1]; [11]): 133%
MST (L1210 leukemia [1]; [11]): 25.0 days
Wt. Change (L1210 leukemia [1]; [11]): -4.9 g
ILS (L1210 leukemia [2]; [12]): 4%
MST (L1210 leukemia [2]; [12]): 9.1 days
Wt. Change (L1210 leukemia [2]; [12]): 1.9 g
ILS (L1210 leukemia [2]; [13]): 3%
MST (L1210 leukemia [2]; [13]): 8.3 days
Wt. Change (L1210 leukemia [2]; [13]): 0.7 g
ILS (L1210 leukemia [2]; [14]): 9%
MST (L1210 leukemia [2]; [14]): 9.0 days
Wt. Change (L1210 leukemia [2]; [14]): 0.2 g
ILS (L1210 leukemia [2]; 36 mg/kg IP days 1-9, Expt. 1): 5%
MST (L1210 leukemia [2]; 36 mg/kg IP days 1-9, Expt. 1): 9.2 days
Wt. Change (L1210 leukemia [2]; 36 mg/kg IP days 1-9, Expt. 1): 1.7 g
ILS (L1210 leukemia [2]; 36 mg/kg IP days 1-9, Expt. 2): 12%
MST (L1210 leukemia [2]; 36 mg/kg IP days 1-9, Expt. 2): 9.0 days
Wt. Change (L1210 leukemia [2]; 36 mg/kg IP days 1-9, Expt. 2): -0.5 g
ILS (L1210 leukemia [2]; 36 mg/kg IP days 1-9, Expt. 3): 9%
MST (L1210 leukemia [2]; 36 mg/kg IP days 1-9, Expt. 3): 9.0 days
Wt. Change (L1210 leukemia [2]; 36 mg/kg IP days 1-9, Expt. 3): 0.2 g
ILS (L1210 leukemia [2]; 60 mg/kg IP days 1-9, Expt. 1): 37%
MST (L1210 leukemia [2]; 60 mg/kg IP days 1-9, Expt. 1): 12.0 days
Wt. Change (L1210 leukemia [2]; 60 mg/kg IP days 1-9, Expt. 1): -0.4 g
ILS (L1210 leukemia [2]; 60 mg/kg IP days 1-9, Expt. 2): 75%
MST (L1210 leukemia [2]; 60 mg/kg IP days 1-9, Expt. 2): 14.0 days
Wt. Change (L1210 leukemia [2]; 60 mg/kg IP days 1-9, Expt. 2): -4.4 g
ILS (L1210 leukemia [2]; 60 mg/kg IP days 1-9, Expt. 3): 46%
MST (L1210 leukemia [2]; 60 mg/kg IP days 1-9, Expt. 3): 12.0 days
Wt. Change (L1210 leukemia [2]; 60 mg/kg IP days 1-9, Expt. 3): -1.3 g
ILS (L1210 leukemia [2]; 100 mg/kg IP days 1-9, Expt. 1): 37%
MST (L1210 leukemia [2]; 100 mg/kg IP days 1-9, Expt. 1): 12.0 days
Wt. Change (L1210 leukemia [2]; 100 mg/kg IP days 1-9, Expt. 1): -2.9 g
ILS (L1210 leukemia [2]; 100 mg/kg IP days 1-9, Expt. 2): 141%
MST (L1210 leukemia [2]; 100 mg/kg IP days 1-9, Expt. 2): 19.3 days
Wt. Change (L1210 leukemia [2]; 100 mg/kg IP days 1-9, Expt. 2): -4.8 g
ILS (L1210 leukemia [2]; 100 mg/kg IP days 1-9, Expt. 3): 95%
MST (L1210 leukemia [2]; 100 mg/kg IP days 1-9, Expt. 3): 16.0 days
Wt. Change (L1210 leukemia [2]; 100 mg/kg IP days 1-9, Expt. 3): -3.1 g
MST (L1210 leukemia [2]; [15]): 6.3 days
Wt. Change (L1210 leukemia [2]; [15]): -5.2 g
ILS (L1210 leukemia [2]; [16]): 156%
MST (L1210 leukemia [2]; [16]): 21.0 days
Wt. Change (L1210 leukemia [2]; [16]): -5.2 g
solubility of dosed preparation (L1210 leukemia [2]; Table 4 Expt. 1, vehicle water, 60 mg/kg and higher): insoluble

O=C1C2C3C=CC(C2C(=O)N1CN1CCOCC1)C1C2C(=O)N(CN4CCOCC4)C(=O)C2C31 (centres unmarked) [Example 5, 4,8-Ethenopyrro[3',4':3,4]cyclobut[1,2-f]isoindole-1,3,5,7(2H,6H)-tetrone,3a,3b,4,4a,7a,8,8a,8b-octahydro-2,6-bis(morpholinomethyl)]
solubility (Water solubility; water): 1000 µg/mL (≈ 2.13 mM)

O=C1C2C3C=CC(C2C(=O)N1CN1CCSCC1)C1C2C(=O)N(CN4CCSCC4)C(=O)C2C31 (centres unmarked) [Example 6, 4,8-Ethenopyrrolo[3'4':3,4]cyclobut[1,2-f]isoindole-1,3,5,7(2H,6H)-tetrone,3a,3b,4,4a,7a,8,8a,8-octahydro-2,6-bis(thiomorpholinomethyl)]
solubility (Water solubility; water): 1000 µg/mL (≈ 1.99 mM)

CCN(CC)CN1C(=O)C2C3C=CC(C2C1=O)C1C2C(=O)N(CN(CC)CC)C(=O)C2C31 (centres unmarked) [Example 7, 4,8-Ethenopyrrolo[3',4':3,4]cyclobut[1,2-f]isoindole-1,3,5,7(2H,6H)-tetrone,3a,3b,4,4a,7a,8,8a,8b-octahydro-2,6-bis(N,N-diethylaminomethyl)]
solubility (Water solubility; water): 1000 µg/mL (≈ 2.26 mM)

CC(=O)OCN1C(=O)C2C3C=CC(C2C1=O)C1C2C(=O)N(COC(C)=O)C(=O)C2C31 (centres unmarked) [Example 8, 4,8-Ethenopyrrolo3',4':3,4cyclobut[1,2-f]isoindole-1,3,5,7(2H,6H)-tetrone,3a,3b,4,4a,7a,8a,8b-octahydro-2,6-bis(acetyloxymethyl)]
solubility (Water solubility; water): 1000 µg/mL (≈ 2.4 mM)
T/C (P388): 208
fraction printed in brackets behind T/C (not explained) (P388): 1/5

NCC(=O)OCN1C(=O)C2C3C=CC(C2C1=O)C1C2C(=O)N(COC(=O)CN)C(=O)C2C31 (centres unmarked) [Example 9, 4,8-Ethenopyrrolo[3',4':3,4]cyclobut[1,2-f]isoindole-1,3,5,7(2H,6H)-tetrone,3a,3b,4,4a,7a,8,8a,8b-octahydro-2-,6bis(2-aminoacetyloxymethyl)]
solubility (Water solubility; water): 20000 µg/mL (≈ 44.8 mM)

O=C(O)CCC(=O)OCN1C(=O)C2C3C=CC(C2C1=O)C1C2C(=O)N(COC(=O)CCC(=O)O)C(=O)C2C31 (centres unmarked) [Example 10, 4,8-Ethenopyrrolo[3',4':3,4]cyclobut[1,2-f]isoindole-1,3,5,7(2H,6H)-tetrone,3a,3b,4,4a,7a,8,8a,8b-octahydro-2-,6-bis(succinyloxymethyl)]
solubility in water (Water solubility; freeze-dried powder after pH adjusted to 6.33 with sodium bicarbonate): readily soluble in water
solubility in water (Water solubility; title compound, 2.4 g mixed with 150 ml of water): not soluble
solubility (Water solubility; water): 20000 µg/mL (≈ 37.6 mM)

CC(=O)OC(C(=O)O)N1C(=O)C2C3C=CC(C2C1=O)C1C2C(=O)N(C(OC(C)=O)C(=O)O)C(=O)C2C31 (centres unmarked) [Example 11]
solubility in water (Water solubility; freeze-dried solid after pH adjusted to 6.11 with sodium bicarbonate): soluble in water
solubility (Water solubility; water): 50000 µg/mL (≈ 99.1 mM)
